In patent US8304448B2, “Method for the treatment of metabolic disorder containing benzazole derivatives as an active ingredient” (Korea Research Institute of Bioscience and Biotechnology, priority 2006, dated 2012):

Assays:
DGAT [1] = assay: Assay for inhibitory activity against DGAT ([14C]triacylglycerol formation, rat microsomal protein); assay type: biochemical; settings: rat microsomal protein as enzyme source
Source text: The derivatives of Chemical Formula 1 in accordance with the present invention are found to inhibit the enzymatic activity of DGAT at a dose-dependent manner (refer to Table 2 and FIG. 1) as measured in a test in which [^14C]triacylglycerol was quantitatively analyzed after enzymatic reaction between 1,2-diacylglycerol and [^14C]palmitoyl-CoA, with microsomal proteins from rats serving as an enzyme source (refer to Example 1).
After enzymatic reaction between two substrates 1,2-diacylglycerol (Sigma, D0138) and [^14C]palmitoyl-CoA (Amersham, CFA583) with the microsomal protein of rat serving as an enzyme source in accordance with Coleman et al, Methods Enzymol., 98-103, 1992, the resulting product [^14C] triacylglycerol was measured for radioactivity. In detail, to a reaction buffer (175 mM Tris-HCl, pH 8.0, 20 μl bovine serum albumin (10 mg/ml), 100 mM MgCl2, 30 μM [^14C] palmitoyl-CoA (0.02 μCi, Amersham) and 200 μM 1,2-dioleoyl glycerol) was added 10 μl of a solution of the samples in dimethylsulfoxide (DMSO) and then 100˜200 μl of an isolated microsomal protein, followed by reaction at 25° C. for 10 min. The reaction was terminated with 1.5 ml of a mixture of 80:20:2 2-propanol:heptane:water (v:v:v). Thereafter, the [^14C] triacylglycerol thus formed was separated. In this regard, 1 ml of heptane and 0.5 ml of distilled water were added to the reaction mixture, which was then shaken. 1 ml of the supernatant thus formed was mixed with 2 ml of an alkaline ethanol solution (ethanol:0.5 N sodium hydroxide:water=50:10:40, v:v:v), followed by shaking. After being taken, 0.65 ml of the supernatant thus formed was measured for radioactivity using an LSC (liquid scintillation counter). The inhibitory activity against DGAT was calculated according to the following Mathematical Formula 1. The inhibitory effects of the benzazole derivatives on DGAT are summarized in Table 2, below while % DGAT inhibition is plotted against doses of compound 22 and 31 in FIG. 1.
T: Cpm of a test group in which a sample was added to an enzymatic buffer,
C: Cpm of a control in which no samples were added to an enzymatic buffer,
B: Cpm of a control in which a sample was added in the absence of any enzyme source.

DGAT [2] = assay: Assay for inhibitory effect on DGAT in cell (intracellular triglyceride production from [14C]acetate in HepG2 cells); assay type: cell-based, human; settings: for Production Yield of Triglyceride (%): final level 10 μM, DMSO control given as 100
Protocol: The effect of the benzazole derivatives of Chemical Formula 1 in accordance with the present invention on DGAT was examined with HepG2 cells, hepatic cells derived from the human liver, as follows.
HepG2 cells, purchased from ATCC, were cultured in Eagle's minimum essential medium (MEM), 2 mM L-glutamine, with Earle's balanced salt solution (BSS) adjusted to contain, 1.5 g/L sodium bicarbonate, 0.1 mM non-essential amino acids and 1 mM sodium pyruvate, supplemented with 10% fetal bovine serum (FBS) and 1% antibiotics (100 U/ml penicillin and 100 µg/ml streptomycin) at 37° C. in a 5% CO2 incubator.
Intracellular DGAT activity was represented by the amount of triglycerides produced in the cultured HepG2 cells while the compounds (4, 8, 10, 22, 24, 25, 26, 39 and 31) of Chemical Formula 1 were assayed for inhibitory activity against DGAT by measuring the change in intracellular triglyceride production after the addition thereof.
Cells were plated at a density of 1×10^6 cell/ml per well into 24-well plates and incubated for 24 hours. Then, the medium was exchanged with FBS-free MEM and pre-treated with samples for 1 hour. Thereafter, 0.2 mCi of [^14C]acetate (Amersham) was added as a substrate to the cells, followed by incubation for 1 hour. The production of triglyceride was catalyzed by DGAT so that DGAT activity was determined by the amount of the triglyceride product, which could be measured by radioactivity. For use, the samples were dissolved in dimethyl sulfoxide (DMSO). In a control, triglycerides were synthesized using DMSO without any sample, with the production yield thereof given as 100.
The amount of the glyceride products synthesized was determined as follows. After completion of synthesis, the cells were suspended in PBS (phosphate-buffer-saline) to remove the substrate [^14C]acetate, whether unabsorbed into the cells or remaining unreacted, and total lipids, including triglycerides, were extracted twice for 30 min with 0.5 ml of an extraction solvent mixture (hexane:isopropanol=3:2, v:v). 1 ml of the extract was concentrated with nitrogen gas.
The total lipid residue thus formed was dissolved in an organic solvent mixture (chloroform:methanol=2:1) and loaded dropwise onto a thin layer chromatography plate (TLC; silica gel 60F254, 0.5 mm, Merck) using a mixture of 80:20:1 hexane:diethylether:acetic acid (v:v:v) as a developing solvent. After the separation of triglycerides (Rf value: 0.4) on TLC, the plate was brought into contact with an autoradiographic film for three hours, followed by image analysis (BAS-1500, Fuji Photo Film Co. Ltd.) to determine the [^14C] radioactivity of the triglycerides. The cells left after the extraction were suspended in 0.3 ml of a 0.1 N sodium hydroxide solution to measure the cellular protein concentration thereof.
The empirical values were obtained by dividing triglyceride radioactivity by protein level, with correction for experimental errors between test groups.

SPF ICR mice = assay: Acute toxicity, single oral dose of 2,000 mg/kg, mice; assay type: in vivo
Protocol: In addition, the compounds of the present invention were orally administered once at a dose of as high as 2,000 mg/kg into mice. In this regard, 7-week-old male SPF ICR mice (Dae Han Biolink Co. Ltd.) were acclimated to a new environment for one week and they, thus 8 weeks old, were divided into two groups of three. The test group was orally administered once with a dose of 2 g/kg of Compound 10 in a 0.5% CMC solution, while the control was administered with a 0.5% CMC (carboxymethyl cellulose) solution alone. They were monitored for death, clinical signs, change in body weight and the like for a couple of weeks. Autopsies were performed to examine the abnormality of organs.
Therefore, the compounds of the present invention exert no oral acute toxicity on mice even when administered once at a dose of up to 2,000 mg/kg.

[3] = tested on: ICR mice fed a high-fat diet; assay: In vivo assay for anti-obesity activity in mice fed a high-fat diet; design: species or system mouse; settings: high-fat diet
Protocol: Also, the derivatives of Chemical Formula 1 were tested for resistance to obesity by iterative oral administration at a dose of 10 mg/kg into ICR male mice (refer to Example 3). […] When they were administered, the levels of total triglycerides, total cholesterols, and low density lipoprotein (LDL)-cholesterol in the blood recovered to almost normal levels, with a significant increase observed in the level of high density lipoprotein (HDL)-cholesterol in the blood (refer to Tables 6 and 7 and FIGS. 3 and 4).
In order to verify the anti-obesity activity of the benzaldehyde derivatives of Chemical Formula 1 in accordance with the present invention, Compounds 22 and 31 were administered repetitively into rodents as follows.
The experimental animals were 6 week old ICR mice which were purchased from Japan SLC, Inc. via Central Lab. Animal Inc. Korea. They were acclimated to a new environment for one week before use, and fed with a foodstuff commercially available from Deyts, U.S.A. They were bred in an animal lab set at a temperature of 23±3° C. and RH 50±10% under light of 150˜300 Lux for a period of 12 hours (6 a.m.˜6 p.m.) with ventilation 10-20 times/hour. All of the 12 mice used were male, and were organized into two groups of 6. The test group was orally administered once a day at 4 p.m. with 10 mg/kg of the compound (Chemical Formula 1) in the form of a solution in biological saline for 35 days while the control was administered with biological saline only. Xenical, a commercially available lipase inhibitor, was administered orally at a dose of 10 mg/kg once a day as a positive control drug.
The animals were measured for body weight every week and sacrificed on Day 35, after which blood from the heart was sampled. Abdominal fat, epididymal fat, retroperitoneal fat and the liver were excised and weighed. Blood samples were assayed for total triglyceride, total cholesterol, HDL-cholesterol and LDL-cholesterol using respective test kits, all commercially available from Asan Pharmaceutical Co. Ltd., Korea.
For evidence of anti-obesity activity, compounds 22 and 31 were orally administered at regular intervals at a dose of 10 mg/kg into ICR male mice for a predetermined period of time with the concurrent provision of conditional diets thereto. Anatomized abdomens of the animals are given in the photographs of FIG. 2.

[4] = Day 35, 10 mg/kg oral, Mean ± SD
[5] = blood, Day 35, 10 mg/kg oral, Mean ± SD

## NS(=O)(=O)c1ccc2oc(COc3ccc(Cl)cc3Cl)nc2c1 [Cpd. 10, 2-(2,4-dichloro-phenoxymethyl)-benzoxazole-5-sulfonic acid amide]
DGAT [1]
  DGAT (% inhibition in 25 μM): 17.43%
DGAT [2]
  Production Yield of Triglyceride (%): 98.7 ± 6.3%
SPF ICR mice; single oral 2 g/kg in 0.5% CMC, No. of Dead/No of Tested
  Mortality: 0/3
SPF ICR mice; single oral 2 g/kg, Day 0, Mean ± SD
  Body Weight (g) Day 0: 35 ± 0.5 g
SPF ICR mice; single oral 2 g/kg, Day 1, Mean ± SD
  Body Weight (g) Day 1: 37 ± 0.5 g
SPF ICR mice; single oral 2 g/kg, Day 3, Mean ± SD
  Body Weight (g) Day 3: 37 ± 0.6 g
SPF ICR mice; single oral 2 g/kg, Day 7, Mean ± SD
  Body Weight (g) Day 7: 39 ± 1.6 g
SPF ICR mice; single oral 2 g/kg, Day 14, Mean ± SD
  Body Weight (g) Day 14: 42 ± 0.8 g

## O=C(NCc1ccco1)c1ccc2[nH]c(COc3ccc(C45CC6CC(CC(C6)C4)C5)cc3)nc2c1 [Cpd. 31, 2-(4-adamantan-1-yl-phenoxymethyl)-1H-benzoimidazole-5-carboxylic acid (furan-2-ylmethyl)-amide]
DGAT [1]; 5 μM
  DGAT (% inhibition in 5 μM): 62.5%
DGAT [1]
  DGAT (% inhibition in 25 μM): 85.4%
[3]; [4]
  (Tissue Weight/Body Weight) × 100 Abdominal Fat + Epididymal Fat: 3.16 ± 0.84
  (Tissue Weight/Body Weight) × 100 Liver: 4.48 ± 0.33
  (Tissue Weight/Body Weight) × 100 Retroperitoneal Fat: 0.94 ± 0.24
  (Tissue Weight/Body Weight) × 100 Total Fat: 4.1 ± 1.03
[3]; [5]
  HDL-Cholesterol: 21.22 ± 2.19 mg/dL
  LDL-Cholesterol: 43.62 ± 10.06 mg/dL
  Total Cholesterol: 73.19 ± 10.97 mg/dL
  Total Triglyceride: 41.79 ± 9.26 mg/dL
[3]; 10 mg/kg oral once a day for 35 days
  inhibition of body weight gain: 73%
[3]; 10 mg/kg oral once a day, Week 0
  Body Weight (g) (Mean ± SD) Week 0: 25.08 ± 0.99 g
[3]; 10 mg/kg oral once a day, Week 1
  Body Weight (g) (Mean ± SD) Week 1: 35.1 ± 1.99 g
[3]; 10 mg/kg oral once a day, Week 2
  Body Weight (g) (Mean ± SD) Week 2: 38.93 ± 2.33 g
[3]; 10 mg/kg oral once a day, Week 3
  Body Weight (g) (Mean ± SD) Week 3: 40.75 ± 1.75 g
[3]; 10 mg/kg oral once a day, Week 4
  Body Weight (g) (Mean ± SD) Week 4: 42.31 ± 1.57 g
[3]; 10 mg/kg oral once a day, Week 5
  Body Weight (g) (Mean ± SD) Week 5: 43.22 ± 1.41 g
DGAT [2]; 10 μM
  inhibition of the biosynthesis of triglycerides: 42.2%
DGAT [2]
  Production Yield of Triglyceride (%): 57.8 ± 5.3%
